In the first assay the target is T1, human Fatty Acid Synthase (Homo sapiens, UniProt P49327).
T1 construct: made in house
T1 sequence (P49327 whole entry): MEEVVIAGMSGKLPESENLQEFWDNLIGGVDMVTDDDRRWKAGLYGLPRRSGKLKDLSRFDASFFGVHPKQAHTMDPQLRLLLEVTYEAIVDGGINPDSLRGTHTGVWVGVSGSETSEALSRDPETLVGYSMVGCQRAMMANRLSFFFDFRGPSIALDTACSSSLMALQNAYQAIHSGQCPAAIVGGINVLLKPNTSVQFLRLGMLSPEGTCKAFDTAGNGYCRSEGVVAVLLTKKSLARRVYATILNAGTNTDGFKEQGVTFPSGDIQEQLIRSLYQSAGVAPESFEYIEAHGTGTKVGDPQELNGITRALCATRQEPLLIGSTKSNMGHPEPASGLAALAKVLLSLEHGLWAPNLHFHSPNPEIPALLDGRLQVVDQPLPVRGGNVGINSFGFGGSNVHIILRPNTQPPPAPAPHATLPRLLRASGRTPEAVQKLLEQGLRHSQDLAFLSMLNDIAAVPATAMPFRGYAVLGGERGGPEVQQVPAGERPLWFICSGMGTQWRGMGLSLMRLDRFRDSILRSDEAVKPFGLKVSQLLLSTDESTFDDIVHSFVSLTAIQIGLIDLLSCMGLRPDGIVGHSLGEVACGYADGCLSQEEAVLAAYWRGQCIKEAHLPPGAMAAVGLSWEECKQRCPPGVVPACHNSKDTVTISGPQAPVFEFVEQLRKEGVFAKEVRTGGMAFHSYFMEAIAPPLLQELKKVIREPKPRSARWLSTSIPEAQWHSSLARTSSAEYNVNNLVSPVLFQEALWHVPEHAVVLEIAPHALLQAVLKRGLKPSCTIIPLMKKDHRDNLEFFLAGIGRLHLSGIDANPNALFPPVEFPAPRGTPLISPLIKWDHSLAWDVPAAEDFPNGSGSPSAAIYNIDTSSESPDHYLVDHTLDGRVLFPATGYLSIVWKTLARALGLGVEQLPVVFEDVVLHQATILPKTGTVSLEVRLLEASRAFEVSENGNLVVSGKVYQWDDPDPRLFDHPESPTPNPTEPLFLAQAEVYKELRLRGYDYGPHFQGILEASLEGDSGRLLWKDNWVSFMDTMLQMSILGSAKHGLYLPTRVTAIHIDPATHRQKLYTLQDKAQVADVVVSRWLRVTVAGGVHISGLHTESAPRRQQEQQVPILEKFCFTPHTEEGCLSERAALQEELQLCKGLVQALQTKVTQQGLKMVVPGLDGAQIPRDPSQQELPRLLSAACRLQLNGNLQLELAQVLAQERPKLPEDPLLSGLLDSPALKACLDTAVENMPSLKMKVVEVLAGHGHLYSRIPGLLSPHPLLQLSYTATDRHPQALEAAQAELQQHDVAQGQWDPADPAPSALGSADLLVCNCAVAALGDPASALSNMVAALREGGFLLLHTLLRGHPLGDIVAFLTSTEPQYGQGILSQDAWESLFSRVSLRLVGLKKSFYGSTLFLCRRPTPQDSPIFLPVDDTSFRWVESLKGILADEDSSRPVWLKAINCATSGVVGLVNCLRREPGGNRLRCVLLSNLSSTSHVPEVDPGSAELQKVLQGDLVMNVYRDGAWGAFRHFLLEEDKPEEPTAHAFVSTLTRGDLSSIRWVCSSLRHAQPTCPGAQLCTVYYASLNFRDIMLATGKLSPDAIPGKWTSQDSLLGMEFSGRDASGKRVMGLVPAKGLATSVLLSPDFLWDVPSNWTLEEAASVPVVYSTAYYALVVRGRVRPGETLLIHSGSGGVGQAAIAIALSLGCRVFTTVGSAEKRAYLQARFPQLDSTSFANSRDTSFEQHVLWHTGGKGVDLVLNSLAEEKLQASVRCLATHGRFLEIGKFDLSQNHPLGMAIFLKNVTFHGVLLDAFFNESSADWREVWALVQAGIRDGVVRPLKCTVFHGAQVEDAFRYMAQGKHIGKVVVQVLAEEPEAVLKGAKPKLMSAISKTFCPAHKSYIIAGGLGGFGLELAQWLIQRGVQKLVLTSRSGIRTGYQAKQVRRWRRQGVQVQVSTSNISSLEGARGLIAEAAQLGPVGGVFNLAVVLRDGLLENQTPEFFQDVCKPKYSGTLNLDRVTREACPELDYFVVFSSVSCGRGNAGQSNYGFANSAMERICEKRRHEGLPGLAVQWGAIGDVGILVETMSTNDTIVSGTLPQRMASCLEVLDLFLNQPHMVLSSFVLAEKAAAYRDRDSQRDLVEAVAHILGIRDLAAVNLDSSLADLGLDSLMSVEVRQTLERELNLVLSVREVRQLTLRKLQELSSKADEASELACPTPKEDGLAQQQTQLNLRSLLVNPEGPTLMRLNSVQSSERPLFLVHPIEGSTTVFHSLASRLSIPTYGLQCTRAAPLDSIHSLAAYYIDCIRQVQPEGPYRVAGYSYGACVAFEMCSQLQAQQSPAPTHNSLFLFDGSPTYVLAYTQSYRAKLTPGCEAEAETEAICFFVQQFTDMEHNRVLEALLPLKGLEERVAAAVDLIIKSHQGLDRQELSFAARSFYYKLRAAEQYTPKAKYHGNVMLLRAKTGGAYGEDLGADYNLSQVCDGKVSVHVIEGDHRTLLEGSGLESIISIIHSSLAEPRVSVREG
Briefly: Human FAS enzyme assay (decrease in NADPH fluorescence). Format: biochemical. As to conditions: % inhibition at a concentration of 100 micromolar. Put shortly: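 Readout: decrease in NADPH fluorescence (340 nm ex, 460 nm em) after 60 min at RT, background-subtracted against a read taken before substrate. Substrate mix contained 500 μM malonyl-CoA and 150 μM acetyl-CoA. It was added after 15 min enzyme (0.4 μg in-house human FAS)–compound–NADPH preincubation in Tris pH 7.5 buffer; % inhibition was fitted to IC50.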
The inhibition is the change of the read-out against control, counted positive when it falls. Consider `Cc1ccc(C(=O)N2CCC(c3ccc(C#N)cc3)CC2)cc1NS(=O)(=O)CCCN(C)C` [Example 74, N-[5-[4-(4-cyanophenyl)piperidine-1-carbonyl]-2-methyl-phenyl]-3-dimethylamino-propane-1-sulfonamide], for which the inhibition at 100 µM came to 95%.

The molecule `Cc1ccc(C(=O)N2CCC(c3ccc(Br)cc3)CC2)cc1NS(C)(=O)=O` [Example 169, N-[5-[4-(4-bromophenyl)piperidine-1-carbonyl]-2-methylphenyl]methanesulfonamide] came in with an inhibition at 100 µM of 90%.

As for `Cc1ccc(NS(C)(=O)=O)cc1C(=O)N1CCC(c2ccc(C#N)cc2)CC1` [Example 7, N-[3-[4-(4-cyanophenyl)piperidine-1-carbonyl]-4-methyl-phenyl]methanesulfonamide], the inhibition at 100 µM was found to be 78%.

The molecule `Cc1ccc(C(=O)N2CCC(c3ccc(C#N)cc3)CC2)cc1NS(=O)(=O)c1ccc2c(c1)CC(=O)N2` [Example 129, N-[5-[4-(4-cyanophenyl)piperidine-1-carbonyl]-2-methyl-phenyl]-2-oxo-1,3-dihydroindole-5-sulfonamide] registered an inhibition at 100 µM of 95%.

`Cc1ccc(C(=O)N2CCC(c3ccc(C(=O)NC4CC4)cc3)CC2)cc1NS(C)(=O)=O` [Example 184, N-cyclopropyl-4-[1-(3-methanesulfonamido-4-methylbenzoyl)piperidin-4-yl]benzamide] displayed an inhibition at 100 µM of 84%.

Take `Cc1ccc(C(=O)N2CCC(c3ccc([S+](C)[O-])cc3)CC2)cc1NS(C)(=O)=O` (centres unmarked) [Example 182, N-[2-methyl-5-[4-(4-methylsulfinylphenyl)piperidine-1-carbonyl]phenyl]methanesulfonamide]: the inhibition at 100 µM came out at 80%.

`Cc1ccc(C(=O)N2CCC(c3ccc(C#N)cc3)CC2)cc1NS(C)(=O)=O` [Example 1, N-(5-(4-(4-cyanophenyl)piperidine-1-carbonyl)-2-methylphenyl)methanesulfonamide] came in with an inhibition at 100 µM of 86%.

Turning to `Cc1ccc(NS(=O)(=O)c2cnoc2C)cc1C(=O)N1CCC(c2ccc(C#N)cc2)CC1` [Example 39, N-[3-[4-(4-cyanophenyl)piperidine-1-carbonyl]-4-methyl-phenyl]-5-methyl-1,2-oxazole-4-sulfonamide], the inhibition at 100 µM stood at 80%.

Molecule `CCCS(=O)(=O)Nc1ccc(C)c(C(=O)N2CCC(c3ccc(C#N)cc3)CC2)c1` [Example 33, N-[3-[4-(4-cyanophenyl)piperidine-1-carbonyl]-4-methyl-phenyl]propane-1-sulfonamide] registered an inhibition at 100 µM of 91%.

`Cc1ccc(C(=O)N2CCC(c3ccc(C#N)cc3)CC2)cc1NS(=O)(=O)CCC(=O)O` [Example 151, 3-[[5-[4-(4-cyanophenyl)piperidine-1-carbonyl]-2-methyl-phenyl]sulfamoyl]propanoic acid]: the inhibition at 100 µM was determined as 81%.

In the case of `CNC(=O)c1ccc(C2CCN(C(=O)c3ccc(C)c(NS(C)(=O)=O)c3)CC2)cc1` [Example 156, 4-[1-(3-methanesulfonamido-4-methyl-benzoyl)-4-piperidyl]-N-methyl-benzamide], the inhibition at 100 µM was 74%.

`Cc1ccc(NS(=O)(=O)CC(F)(F)F)cc1C(=O)N1CCC(c2ccc(C#N)cc2)CC1` [Example 55, N-[3-[4-(4-cyanophenyl)piperidine-1-carbonyl]-4-methyl-phenyl]-2,2,2-trifluoro-ethanesulfonamide]: the inhibition at 100 µM stood at 79%.

The same assay, now with this note: unit inferred.
As a reminder, the IC50 is the point on the concentration scale where inhibition reaches its midpoint. A high value points to weaker potency. Molecule `Cc1ccc(C(=O)N2CCC(c3ccc(CCC(=O)N(C)C)cc3)CC2)cc1NS(C)(=O)=O` [Example 249, 3-[4-[1-(3-methanesulfonamido-4-methylbenzoyl)piperidin-4-yl]phenyl]-N,N-dimethylpropanamide] yielded an IC50 of 0.515 µM. That is a sub-micromolar value.

`Cc1ccc(C(=O)N2CCC(c3ccc(CNS(=O)(=O)CC(=O)O)cc3)CC2)cc1NS(C)(=O)=O` [Example 253, 2-[[4-[1-(3-methanesulfonamido-4-methylbenzoyl)piperidin-4-yl]phenyl]methylsulfamoyl]acetic acid] gave an IC50 of 12.7 µM. Compared with the last molecule, the IC50 is about 25-fold higher.

These data come from US20090105305A1, “Therapeutic Agents - 550” (AstraZeneca AB, priority 2006, published 2009).
